Test results from patent publication US20250034168A1, “NITROGEN-CONTAINING HETEROCYCLIC DERIVATIVE PARP INHIBITOR AND USE THEREOF” (XIZANG HAISCO PHARMACEUTICAL CO., LTD., priority 2021, published 2025).

Key:
[1] = biological target: PARP7 (Homo sapiens (Human), UniProt Q7Z3E1); assay: PARP7 enzyme activity test; type: biochemical
Protocol: PARP2 and PARP7 chemical […] detection kits were both purchased from BPS Bioscience. The histone solution in the kit was diluted 5× with 1×PBS, and 25 μL of the diluted histone solution was added to a microwell plate and incubated overnight at 4° C. After the incubation, the plate was washed three times with PBST (0.05% Tween-20). 100 μL of the blocking solution was added to the microwell plate and incubated at 25° C. for 90 minutes. After the incubation, the plate was washed three times with PBST. 2.5 μL of compound 4 diluted in test buffer and 5 μL of substrate mixed solution were added to the microwell plate. 5 μL of the diluted PARP enzyme was added to the microwell plate, and the reaction system was incubated at 25° C. for 60 minutes.
After the incubation, the plate was washed three times with PBST. Streptavidin-HRP was diluted 50× with a blocking solution, and 25 μL of the diluent was added to the microwell plate and incubated at 25° C. for 30 minutes. After the incubation, the plate was washed three times with PBST. ELISA ECL substrate A and substrate B were mixed at a ratio of 1:1 (v/v), 25 μL of the mixture was added to the microwell plate, and the chemiluminescence value was read. […]

[2] = test system: MDA-MB-436 cells; assay: MDA-MB-436 cell activity test; type: cell-based; conditions: Homo sapiens
Protocol: Breast tumor cells MDA-MB-436 were purchased from ATCC, the culture medium was Leibovitz's L-15+10% FBS, and the cells were cultured in a CO2-free incubator at 37° C. On day 1, the cells in the exponential growth phase were collected, and the cell suspension was adjusted to 4000 cells/135 μL with the culture medium. 135 μL of the cell suspension was added to each well of a 96-well cell culture plate and incubated overnight. On day 2, compounds at different concentrations were added, and the plate was placed in the incubator and incubated for 7 days. After the incubation was completed, according to operation instructions for a CellTiter-Glo kit (Promega, G7573), 75 μL of CTG solution, which was already pre-melted and equilibrated to room temperature, was added to each well, and the mixture was uniformly mixed for 2 min using a microplate shaker. The plate was placed at room temperature for 10 min, and then […] were measured using an Envision2104 plate reader (PerkinElmer). The inhibition rate was calculated using formula (1), where RLUcompound was the readout of the drug treated group, RLUcontrol was the average value of the vehicle control group, and RLUblank was the average value of the cell-free well. The IC50 value was calculated using GraphPad Prism software.

[3] = test system: MDA-MB-436 subcutaneous transplanted tumor; assay: Mouse MDA-MB-436 subcutaneous in vivo transplanted tumor model; design: species or system BALB/c nude mice
Protocol: Human breast cancer MDA-MB-436 cells were placed in Leibovitz's L-15 medium (supplemented with 10 μg/mL insulin, 16 μg/mL glutathione, 10% fetal bovine serum and 1% double antibody) and cultured at 37° C. Conventional digestion treatment with trypsin was carried out twice a week for passage. When the cell saturation was 80%-90%, and the number reached the requirement, the cells were collected, counted, and inoculated. BALB/c nude mice (from Beijing Vital River Laboratory Animal Technology Co., Ltd.) were subcutaneously inoculated with 0.2 mL (10×10^6) of MDA-MB-436 cells (plus matrigel, with the volume ratio of 1:1) on the right back. When the average tumor volume reached about 180 mm^3, grouping and administration were performed (marked as Day 0). The solvent group was given 5% DMSO, 30% PEG400 and 65% of 20% sulfobutyl-β-cyclodextrin solution, and the administration group was given compound 14 (Day 0-Day 10:1 mg/kg; Day 11-Day 28:0.1 mg/kg). The administration frequency was once a day, the administration cycle was 29 days, and the drug withdrawal observation period was set to 14 days. After grouping, the tumor diameter was measured twice a week with a vernier caliper. The formula for calculating the tumor volume was: V=0.5×a×b^2, where a and b represented the long and short diameters of the tumor, respectively. The tumor inhibitory effect of compound 14 was evaluated by TGI (%)=[(1−(average tumor volume at the end of administration in the treatment group−average tumor volume at the beginning of administration in the treatment group))/(average tumor volume at the end of treatment in the solvent control group−average tumor volume at the beginning of treatment in the solvent control group)]×100%. The tumor growth curve and the animal body weight change curve were as shown in FIG. 1 and FIG. 2, respectively.

[4] = Pharmacokinetic test in mice; type: in vivo, ICR mice
Protocol: • 5.2.1 Experimental animals: male ICR mice, 20-25 g, 18 mice/compound. purchased from Chengdu Ddossy Experimental Animals Co., Ltd. • 5.2.2 Experimental design: on the day of the test, 18 ICR mice were randomly grouped according to their body weights. the animals were fasted with water available for 12 to 14 h one day before the administration, and were fed 4 h after the administration.
Before and after the administration, 0.06 mL of blood was taken from the orbit of the animals under isoflurane anesthesia and placed in an EDTAK2 centrifuge tube. The blood was centrifuged at 5000 rpm and 4° C. for 10 min to collect plasma. The blood collection time points for the intravenous group and intragastric administration group were: 0 min, 5 min, 15 min, 30 min, 1 h, 2 h, 4 h, 6 h, 8 h, and 24 h. Before analysis and detection, all samples were stored at −80° C., and a quantitative analysis of samples was performed using LC-MS/MS.

[5] = male, ICR, iv, mouse plasma, i.v. 2.5 mg/kg

Chain of PARP7 (Q7Z3E1 whole entry): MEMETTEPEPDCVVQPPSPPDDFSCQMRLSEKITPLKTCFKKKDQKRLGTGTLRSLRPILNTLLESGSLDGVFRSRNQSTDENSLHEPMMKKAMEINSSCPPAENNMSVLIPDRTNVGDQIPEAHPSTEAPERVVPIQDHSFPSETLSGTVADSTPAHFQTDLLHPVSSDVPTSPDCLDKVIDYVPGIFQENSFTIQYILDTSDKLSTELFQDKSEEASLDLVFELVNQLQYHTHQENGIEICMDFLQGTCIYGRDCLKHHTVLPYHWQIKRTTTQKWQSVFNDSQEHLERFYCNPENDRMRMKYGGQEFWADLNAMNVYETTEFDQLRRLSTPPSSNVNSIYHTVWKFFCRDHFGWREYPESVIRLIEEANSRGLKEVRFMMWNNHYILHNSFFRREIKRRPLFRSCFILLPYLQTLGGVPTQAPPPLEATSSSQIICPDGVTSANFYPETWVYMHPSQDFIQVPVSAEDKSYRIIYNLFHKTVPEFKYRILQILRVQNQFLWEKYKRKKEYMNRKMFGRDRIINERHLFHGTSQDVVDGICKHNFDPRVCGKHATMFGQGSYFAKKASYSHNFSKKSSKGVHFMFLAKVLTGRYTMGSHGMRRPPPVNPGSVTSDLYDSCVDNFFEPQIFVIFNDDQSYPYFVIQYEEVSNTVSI

For `CCc1cc2ncc(CN3CC=C(c4ccc(C(=O)NC)nc4)CC3)cc2[nH]c1=O` [Compound 14, 1′-((7-ethyl-6-oxo-5,6-dihydro-1,5-naphthyridin-3-yl)methyl)-N-methyl-1′,2′,3′,6′-tetrahydro-[3,4′-bipyridine]-6-carboxamide], the IC50 [1] was 40 nM, the IC50 ([2]; MDA-MB-436, 168 h, 7 days incubation, CellTiter-Glo) was 3.2 nM and the inhibition at 10 µM ([2]; MDA-MB-436 cells, 10 μM, read-out: Max inh. % 10 μM) was 89.1%. For the same compound, the “body weight of the animals” value ([3]; Day 0-Day 10: 1 mg/kg, Day 11-Day 28: 0.1 mg/kg, once a day) was “no significant decrease”, the TGI ([3]; after 28 days of administration, Day 0-Day 10: 1 mg/kg, Day 11-Day 28: 0.1 mg/kg, once a day) was 121% and the “tumor growth after drug withdrawal” value ([3]; drug withdrawal observation period 14 days) was “did not grow again”. The AUC(0-t) [4, 5] was 220 µg·h/mL, the clearance [4, 5] was 0.164 mL/min/kg and the Vd ([4]; male, ICR, iv, mouse plasma, i.v. 2.5 mg/kg, read-out: Vdss) was 0.112 L/kg. It also gave an AUC(0-t) ([4]; male, ICR, po, mouse plasma, i.g. 10 mg/kg) of 829 µg·h/mL and an F ([4]; mouse, i.g. 10 mg/kg) of 94.3%.
